The record followed here is PMC6429117, “Discovery of Galangin as a Potential DPP-4 Inhibitor That Improves Insulin-Stimulated Skeletal Muscle Glucose Uptake: A Combinational Therapy for Diabetes” (International Journal of Molecular Sciences, 2019).

Broadly, the IC50 is the midpoint of a concentration-inhibition curve. Higher therefore signals a need for much substance.

The target of this experiment is T1, dipeptidyl peptidase-4 (DPP-4) (Homo sapiens, UniProt P27487).
T1 construct: gene DPP4; recombinant human DPP-4 enzyme
T1 sequence (P27487 39-766): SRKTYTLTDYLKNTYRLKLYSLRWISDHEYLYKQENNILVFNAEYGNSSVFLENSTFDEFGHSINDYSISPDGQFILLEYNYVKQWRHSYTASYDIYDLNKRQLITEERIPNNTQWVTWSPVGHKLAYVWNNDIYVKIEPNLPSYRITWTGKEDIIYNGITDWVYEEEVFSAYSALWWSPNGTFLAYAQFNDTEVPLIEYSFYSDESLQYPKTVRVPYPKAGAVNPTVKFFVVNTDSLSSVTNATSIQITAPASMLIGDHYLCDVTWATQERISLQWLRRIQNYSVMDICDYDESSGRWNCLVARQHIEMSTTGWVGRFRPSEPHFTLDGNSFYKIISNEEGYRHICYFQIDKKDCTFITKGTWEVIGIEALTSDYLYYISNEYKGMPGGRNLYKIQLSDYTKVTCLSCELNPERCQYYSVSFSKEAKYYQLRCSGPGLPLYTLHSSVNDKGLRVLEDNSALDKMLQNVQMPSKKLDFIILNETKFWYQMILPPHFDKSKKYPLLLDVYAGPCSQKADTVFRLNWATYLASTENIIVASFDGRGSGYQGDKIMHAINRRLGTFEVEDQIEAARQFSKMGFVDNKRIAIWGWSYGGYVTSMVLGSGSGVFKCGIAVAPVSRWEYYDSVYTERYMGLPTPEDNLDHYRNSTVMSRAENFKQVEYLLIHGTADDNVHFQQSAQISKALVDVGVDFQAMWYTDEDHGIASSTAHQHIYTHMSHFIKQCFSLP
The experiment is described as follows: fluorogenic enzyme inhibition assay (H-Gly-Pro-AMC cleavage, Sigma DPP-4 inhibitor screening kit). Type of experiment: biochemical.

The compound `O=c1c(O)c(-c2ccccc2)oc2cc(O)cc(O)c12` [Galangin, 3,5,7-trihydroxyflavone] registered an IC50 of 40.1 µM.
